Measurements as given in patent publication US7968570B2, “Isoindolone compounds and their use as metabotropic glutamate receptor potentiators” (AstraZeneca AB, priority 2004, dated 2011).
Where two headings read alike, the source gives them in different places.

Molecular target: T1, human mGluR2 receptor (Homo sapiens, UniProt Q14416)
T1 construct: expressed in transfected cells
Experiment: [35S]-GTPγS binding assay of mGluR2 receptor activation
Type: biochemical
Description: A [^35S]-GTPγS binding assay was used to functionally assay mGluR2 receptor activation. The allosteric activator activity of compounds at the human mGluR2 receptor were measured using a [^35S]-GTPγS binding assay with membranes prepared from CHO cells which stably express the human mGluR2. The assay is based upon the principle that agonists bind to G-protein coupled receptors to stimulate GDP-GTP exchange at the G-protein. Since [^35S]-GTPγS is a non-hydrolyzable GTP analog, it can be used to provide an index of GDP-GTP exchange and, thus, receptor activation. The GTPγS binding assay therefore provides a quantitative measure of receptor activation.
Membranes were prepared from CHO cells stably transfected with human mGluR2. Membranes (30 μg protein) were incubated with test compound (3 nM to 300 μM) for 15 minutes at room temperature prior to the addition of 1 μM glutamate, and incubated for 30 min at 30° C. in 500 μl assay buffer (20 mM HEPES, 100 mM NaCl, 10 mM MgCl2), containing 30 μM GDP and 0.1 nM [^35S]-GTPγS (1250 Ci/mmol). Reactions were carried out in triplicate in 2 ml polypropylene 96-well plates. Reactions were terminated by vacuum filtration using a Packard 96-well harvester and Unifilter-96, GF/B filter microplates. The filter plates were washed 4×1.5 ml with ice-cold wash buffer (10 mM sodium phosphate buffer, pH 7.4). The filter plates were dried and 35 μl of scintillation fluid (Microscint 20) was added to each well. The amount of radioactivity bound was determined by counting plates on the Packard TopCount. Data was analyzed using GraphPad Prism, and EC50 and Emax values (relative to the maximum glutamate effect) were calculated using non-linear regression.

[1] = membranes from CHO cells stably expressing human mGluR2, 1 μM glutamate

T1 sequence (Q14416 19-872): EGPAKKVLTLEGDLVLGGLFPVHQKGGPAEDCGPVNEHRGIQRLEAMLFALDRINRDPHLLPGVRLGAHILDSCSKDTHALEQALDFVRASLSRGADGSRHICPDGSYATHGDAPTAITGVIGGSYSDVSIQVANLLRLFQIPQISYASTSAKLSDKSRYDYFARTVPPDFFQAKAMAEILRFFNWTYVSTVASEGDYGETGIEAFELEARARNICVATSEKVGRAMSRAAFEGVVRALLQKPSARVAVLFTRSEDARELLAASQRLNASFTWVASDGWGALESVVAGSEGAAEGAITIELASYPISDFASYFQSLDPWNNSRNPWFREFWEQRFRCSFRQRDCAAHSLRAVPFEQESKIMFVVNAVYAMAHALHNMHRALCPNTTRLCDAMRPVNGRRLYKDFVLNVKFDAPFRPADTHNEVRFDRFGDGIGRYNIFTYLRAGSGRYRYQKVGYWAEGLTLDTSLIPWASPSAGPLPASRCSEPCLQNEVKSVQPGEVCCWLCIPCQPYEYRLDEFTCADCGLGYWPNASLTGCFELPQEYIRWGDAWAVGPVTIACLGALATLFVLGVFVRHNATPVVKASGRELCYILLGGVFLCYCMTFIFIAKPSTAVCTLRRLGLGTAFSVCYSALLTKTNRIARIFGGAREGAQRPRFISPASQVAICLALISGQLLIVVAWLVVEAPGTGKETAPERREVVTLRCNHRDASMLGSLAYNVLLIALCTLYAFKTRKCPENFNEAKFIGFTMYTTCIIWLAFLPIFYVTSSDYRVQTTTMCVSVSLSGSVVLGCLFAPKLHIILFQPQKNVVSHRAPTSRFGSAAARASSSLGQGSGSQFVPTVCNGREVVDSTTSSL

Row | EC50 [µM] | EC50 [1] [µM] | SMILES
1 |  | 0.1 | Cc1cc(N2CCN(CCc3ccncc3)CC2)cc2c1C(=O)N(Cc1ccc(OC(F)(F)F)cc1)C2 [Example 137]
2 |  | 0.09 | O=C1c2c(Cl)cc(-c3ccncc3)cc2CN1Cc1ccc(OC(F)(F)F)cc1 [Example 102, 7-Chloro-5-pyridin-4-yl-2-(4-trifluoromethoxy-benzyl)-2,3-dihydro-isoindol-1-one]
3 |  | 0.59 | Cc1cc(CN2CCOCC2)cc2c1C(=O)N(Cc1ccc(OC(F)(F)F)cc1)C2 [Example 44, 7-Methyl-5-morpholin-4-ylmethyl-2-(4-trifluoromethoxy-benzyl)-2,3-dihydro-isoindol-1-one]
4 | 1.51 |  | CCCN1CCC(Cc2cc(C)c3c(c2)CN(Cc2ccc(OC(F)(F)F)cc2)C3=O)CC1 [Example 172, 7-methyl-5-(1-propyl-piperidin-4-ylmethyl)-2-(4-trifluorometh-oxy-benzyl)-2,3-dihydro-isoindol-1-one]
5 |  | 0.47 | Cc1cc(CNCc2ccncc2)cc2c1C(=O)N(Cc1ccc(OC(F)(F)F)cc1)C2 [Example 42, 7-Methyl-5-{[(pyridine-4-ylmethyl)-amino]-methyl}-2-(4-trifluoromethoxy-benzyl)-2,3-dihydro-isoindol-1-one]
6 | 0.14 |  | Cc1cc(CC2CCN(Cc3cccnc3)CC2)cc2c1C(=O)N(Cc1ccc(OC(F)(F)F)cc1)C2 [Example 169, 7-methyl-5-(1-pyridin-3-ylmethyl-piperidin-4-ylmethyl)-2-(4-trifluorometh-oxy-benzyl)-2,3-dihydro-isoindol-1-one]
7 |  | 6.57 | COCCN1CCN(c2ccc3c(c2)CN(Cc2ccc(OC(F)(F)F)cc2)C3=O)CC1 [Example 147, 5-[4-(2-Methoxy-ethyl)-piperazin-1-yl]-2-(4-trifluoromethoxy-benzyl)-2,3-dihydro-isoindol-1-one]
8 |  | 2.4 | Cc1cc(CN2CC=CC2)cc2c1C(=O)N(Cc1ccc(OC(F)(F)F)cc1)C2 [Example 39, 5-(2,5-Dihydro-pyrrol-1-ylmethyl)-7-methyl-2-(4-trifluoromethoxy-benzyl)-2,3-dihydro-isoindol-1-one]
9 |  | 0.6 | Cc1cc(N2CCN3CCCC3C2)cc2c1C(=O)N(Cc1ccc(OC(F)(F)F)cc1)C2 (stereo not drawn) [Example 111, 5- (Hexahydropyrrolo [1,2-a]pyrazin-2-yl)-7-methyl-2-(4-trifluoromethoxybenzyl)-2,3-dihydroisoindol-1-one]
10 |  | 0.36 | Cc1cc(N2CCN(Cc3cccnc3)CC2)cc2c1C(=O)N(Cc1ccc(OC(F)(F)F)cc1)C2 [Example 138, 7-Methyl-5-(4-pyridin-3-ylmethyl-piperazin-1-yl)-2-(4-trifluoromethoxy-benzyl)-2,3-dihydro-isoindol-1-one]

The remaining lines, values behind:

Row | SMILES | EC50 [µM] | EC50 [1] [µM]
11 | CNCc1noc(-c2cc(C)c3c(c2)CN(Cc2ccc(OC(F)(F)F)cc2)C3=O)n1 [Example 179, 7-Methyl-5-(3-methylamino-methyl-[1,2,4]oxadiazol-5-yl)-2-(4-trifluorometh-oxy-benzyl)-2,3-dihydro-isoindol-1-one] | 0.47 | 
12 | CCN(CC)C(=O)C1CCCN(Cc2cc(C)c3c(c2)CN(Cc2ccc(OC(F)(F)F)cc2)C3=O)C1 (stereo not drawn) [Example 50, 1-[7-Methyl-1-oxo-2-(4-trifluoromethoxy-benzyl)-2,3-dihydro-1H-isoindol-5-ylmethyl]-piperidine-3-carboxylic acid diethylamide] |  | 1.81
13 | Cc1cc(C2CCNCC2)cc2c1C(=O)N(Cc1ccc(OC(F)(F)F)cc1)C2 [Example 158, 7-Methyl-5-piperidin-4-yl-2-(4-trifluoromethoxy-benzyl)-2,3-dihydro-isoindol-1-one] |  | 2.02
14 | CCN(CC)Cc1noc(-c2cc(C)c3c(c2)CN(Cc2ccc(OC(F)(F)F)cc2)C3=O)n1 [Example 177, 5-(3- Diethylaminomethyl-[1,2,4]oxadiazol-5-yl)-7-methyl-2-(4-trifluorometh-oxy-benzyl)-2,3-dihydro-isoindol-1-one] | 0.14 | 
15 | Cc1cc(N2CCC(N(C)C)C2)cc2c1C(=O)N(Cc1ccc(Cl)cc1)C2 (stereo not drawn) [Example 119, 2-(4-chlorobenzyl)-5-(3-dimethylamino-pyrollidin-1-yl)-7-methyl-2,3-dihydroisoindol-1-one] |  | 0.42
16 | Cc1cc(CNC2Cc3ccccc3C2)cc2c1C(=O)N(Cc1ccc(OC(F)(F)F)cc1)C2 [Example 48, 5-(Indan-2-ylaminomethyl)-7-methyl-2-(4-trifluoromethoxy-benzyl)-2,3-dihydro-isoindol-1-one] |  | 0.41
17 | O=C1c2c(Cl)cc(N3CCOCC3)cc2CN1Cc1ccc(OC(F)(F)F)cc1 [Example 155, 7-Chloro-5-morpholin-4-yl-2-(4-trifluoromethoxy-benzyl)-2,3-dihydro-isoindol-1-one] |  | 0.52
18 | Cc1cc(N2CCN(C)CC2)cc2c1C(=O)N(Cc1ccc(Cl)cc1)C2 [Example 117, 2-(4-chlorobenzyl)-7-methyl-5-(4-methylpiperazin-1-yl)-2,3-di-hydroisoindol-1-one] |  | 1.45
19 | Cc1cc(Br)cc2c1C(=O)N(Cc1ccc(Cl)cc1)C2 [Example 31, 5-Bromo-2-(4-chlorobenzyl)-7-methyl-2,3-dihydroisoindol-1-one] |  | 0.71
20 | CN1CCN(c2cc(Cl)c3c(c2)CN(Cc2ccc(Cl)cc2)C3=O)CC1 [Example 133, 7-Chloro-2-(4-chlorobenzyl)-5-(4-methyl-piperazin-1-yl)-2,3-dihydroisoindol-1-one] |  | 0.59
21 | Cc1cc(N2CCCN3CCCCC3C2)cc2c1C(=O)N(Cc1ccc(OC(F)(F)F)cc1)C2 (stereo not drawn) [Example 122, 7-Methyl-5-(octahydropyrido [1,2-a][1,4]diazepin-2-yl)-2-(4-trifluoromethoxy-benzyl)-2,3-dihydroisoindol-1-one] |  | 3.55
22 | Cc1cc(CNCCCc2ccccc2)cc2c1C(=O)N(Cc1ccc(OC(F)(F)F)cc1)C2 [Example 47, 7-Methyl-5-[(3-phenyl-propylamino)-methyl]-2-(4-trifluoromethoxy-benzyl)-2,3-dihydro-isoindol-1-one] |  | 0.34
23 | O=C1c2c(Cl)cc(N3CCN4CCCC4C3)cc2CN1Cc1ccc(Cl)cc1 (stereo not drawn) [Example 134, 7-Chloro-2-(4-chloro-benzyl)-5-(hexahydro-pyrrolo[1,2-a]pyrazin-2-yl)-2,3-dihydro-isoindol-1-one] |  | 0.61
24 | O=C1c2ccc(N3CCC4(CC3)C(=O)N(Cc3ccc(F)cc3)CN4c3ccccc3)cc2CN1Cc1ccc(OC(F)(F)F)cc1 [Example 153, 3-(4-Fluoro-benzyl)-8-[1-oxo-2-(4-trifluoromethoxy-benzyl)-2,3-dihydro-1H-isoindol-5-yl]-1-phenyl-1,3,8-triaza-spiro[4.5] decan-4-one] |  | 2.64
25 | Cc1cc(C2CCN(C)CC2)cc2c1C(=O)N(Cc1ccc(OC(F)(F)F)cc1)C2 [Example 159, 7-Methyl-5-(1-methyl-piperidin-4-yl)-2-(4-trifluoromethoxy-benzyl)-2,3-dihydro-isoindol-1-one] |  | 1.28
26 | COc1cc(C2=CCN(C(=O)OC(C)(C)C)CC2)cc2c1C(=O)N(Cc1ccc(OC(F)(F)F)cc1)C2 [Example 85, 4-[7-Methoxy-1-oxo-2-(4-trifluoromethoxy-benzyl)-2,3-dihydro-1H-isoindol-5-yl]-3,6-dihydro-2H-pyridine-1-carboxylic acid tert-butyl ester] |  | 0.08
27 | Cc1cc(CN2CCC(n3c(=O)[nH]c4ccccc43)CC2)cc2c1C(=O)N(Cc1ccc(OC(F)(F)F)cc1)C2 [Example 56, 1-{1-[7-Methyl-1-oxo-2-(4-trifluoromethoxy-benzyl)-2,3-dihydro-1H-isoindol-5-ylmethyl]-piperidin-4-yl}-1,3-dihydro-benzoimidazol-2-one] |  | 0.06
28 | CN(C)[C@H]1CCN(c2cc(Cl)c3c(c2)CN(Cc2ccc(OC(F)(F)F)cc2)C3=O)C1 (stereo in doubt) [Example 144, 7-Chloro-5-(3-dimethylamino-pyrrolidin-1-yl)-2-(4-trifluoromethoxy-benzyl)-2,3-dihydro-isoindol-1-one] |  | 0.31
29 | Cc1cc(-c2ccncc2)cc2c1C(=O)N(Cc1ccc(Oc3ccccc3)cc1)C2 [Example 103, 7-Methyl-2-(4-phenoxy-benzyl)-5-pyridin-4-yl-2,3-dihydro-isoindol-1-one] |  | 0.04
30 | COc1cc(-c2cccnc2)cc2c1C(=O)N(Cc1ccc(OC(F)(F)F)cc1)C2 [Example 100, 7-Methoxy-5-pyridin-3-yl-2-(4-trifluoromethoxy-benzyl)-2,3-dihydroisoindol-1-one] |  | 0.22
31 | O=C1c2c(Cl)cc(N3CCN4CCCC4C3)cc2CN1Cc1ccc(OC(F)(F)F)cc1 (stereo not drawn) [Example 132, 7-Chloro-5-(hexahydro-pyrrolo[1,2-a]pyrazin-2-yl)-2-(4-trifluoromethoxy-benzyl)-2,3-dihydro-isoindol-1-one] |  | 0.48
32 | Cc1cc(CN2CCC(N3CCCCC3)CC2)cc2c1C(=O)N(Cc1ccc(OC(F)(F)F)cc1)C2 [Example 49, 5-[1, 4″]Bipiperidinyl-1″-ylmethyl-7-methyl-2-(4-trifluoromethoxy-benzyl)-2,3-dihydro-isoindol-1-one] |  | 3.25
33 | Cc1cc(-c2cccnc2)cc2c1C(=O)N(Cc1ccc(Cl)cc1)C2 [Example 98, 2-(4-chlorobenzyl)-7-methyl-5-pyridin-3-yl-2,3-dihydroisoindol-1-one] |  | 0.1
